Entries after “also recorded” stand apart in the source; their conditions may differ.
B1: abciximab: Immunoglobulin Fragment Fab Fragment Chimeric monoclonal antibody 7E3 (GP IIbIIIa receptor blocker) (antibody, chains of the INN, looked up, V domains shown)
VH: EVQLQQSGTVLARPGASVKMSCEASGYTFTNYWMHWVKQRPGQGLEWIGAIYPGNSDTSYIQKFKGKAKLTAVTSTTSVYMELSSLTNEDSAVYYCTLYDGYYVFAYWGQGTLVTVSA
VL: EIVLTQSPVTLSVTPGDSVSLSCRASRDISNNLHWFQQTSHESPRLLIKYASQSMSGIPSRFSGSGSGTDFTLSINSVETEDFGMYFCQQTNSWPYTFGGGTKLEIK
modifications: Fab

Experiments:
[1] = tested on: human platelet rich plasma; assay: Agonist-induced platelet aggregation in normal and aspirinized PRP, PAP 8E platelet aggregometer (Example 1); format: cell-based; conditions: for ability to detect the drug in the presence of aspirin: aspirinized PRP, synthetic collagen 8-64 ng/mL; for effect on biological collagen-induced aggregation: Bio/Data and Chrono Log biological collagen; for effect on Bio/Data collagen-induced aggregation: Bio/Data collagen 190 μg/mL; for effect on arachidonic acid-induced aggregation: arachidonic acid 500 μg/mL; for antiplatelet effect in synthetic collagen-induced aggregation at lower concentrations: synthetic collagen 32 ng/mL and lower (32, 16, 8 ng/mL); for effect on 64 ng/mL synthetic collagen-induced aggregation: synthetic collagen 64 ng/mL
Description: ADP was obtained from Bio/Data Corporation, Horsham, Pa. Each vial was reconstituted with 1 mL of deionized water to make a 100 μM working solution. The final concentration of ADP in the aggregation cuvette was 10 μM.
Arachidonic acid was obtained from Bio/Data Corporation, Horsham, Pa. Each vial was reconstituted with 0.5 mL deionized water to make a 5 mg/mL working solution. The final concentration of arachidonic acid in the aggregation cuvette was 500 μg/mL.
Biological Collagen was obtained from Bio/Data Corporation, Horsham, Pa. Each vial was reconstituted with 0.5 mL deionized water to make a 1.9 mg/mL working solution. The final concentration of Bio/Data collagen in the aggregation cuvette was 190 μg/mL.
Biological Collagen was obtained from Chrono Log Corporation, Havertown, Pa. as a 1 mg/mL solution. A working solution of 100 μg/mL was made by dilution with physiologic saline. The final concentration of Chrono Log collagen in the aggregation cuvette was 10 μg/mL.
Synthetic collagen was provided by JNC Corporation, Yokohama, Japan at working concentrations of 80, 160, 320 and 640 ng/mL. The final concentrations of synthetic collagen in the aggregation cuvette were 64, 32, 16 and 8 ng/mL.
Approval for the collection of whole blood from healthy human volunteers was granted from the Institutional Review Board of the Health Sciences Division of Loyola University Chicago. Whole blood was drawn using a double syringe technique from the antecubital vein and anticoagulated by the addition of 1 part 3.2% sodium citrate to (9 parts blood to 1 part citrate). Citrated blood was centrifuged at 80×g at room temperature for 15 minutes to make platelet rich plasma (PRP). Supernatant PRP was collected and kept at room temperature in capped tubes. The remaining citrated blood was recentrifuged at 1,100×g for 15 minutes to make platelet poor plasma (PPP). The platelet count of the PRP was determined using an ICHOR II Analyzer, Helena Laboratories, Beaumont, Tex. Platelet count in the PRP was adjusted to 250,000-300,000/μl by the addition of homologous PPP.
Six blood donors were used for this study. Each was drawn on separate days for the ‘non-aspirinized’ and ‘aspirinized’ portions of the protocol. For the ‘non-aspirinized’ portion of the protocol, one donor ([…]) was excluded from the final analysis as the aggregation responses were markedly different from that of the other 5 donors.
Platelet aggregation was measured using a PAP 8E platelet aggregometer (Bio/Data). Each well was blanked using PPP. 25 μl of saline or antiplatelet drug and 200 μl of PRP were added to cuvettes containing magnetic stir bars and incubated for three minutes to equilibrate the sample to 37° C. 25 μl of agonist was added to each cuvette and the aggregation profile was monitored until a plateau was achieved. Results were tabulated in terms of maximal aggregation level. Under some reaction conditions, reversible aggregation was observed. This was most commonly observed with ADP and arachidonic acid-induced aggregation in the presence of ticagrelor or cilostazol. Final aggregation levels were also tabulated.

[2] = tested on: PRP samples of healthy donors; assay: LTAAs using synthetic collagen with anti-platelet medication added to the PRP sample (Example 2); format: cell-based; conditions: synthetic collagen 12.5, 25, 50, 100 ng/mL
Description: Two healthy donors supplied the PRP samples. A panel of four different synthetic collagen concentrations were tested (12.5 ng/mL, 25 ng/mL, 50 ng/mL and 100 ng/mL Abciximab was added to the each of the four panels of different synthetic collagen concentrations. In one panel, saline was added as the control to each of the four synthetic collagen concentrations. In the second panel, 12.5 μg/mL (micrograms/mL) of abciximab was added to each of the four synthetic collagen concentrations. In a third panel, 25 μg/mL of abciximab was added to each of the four synthetic collagen concentrations. In a fourth panel, 50 μg/mL of abciximab was added to each of the four synthetic collagen concentrations. LTAAs were run for each and the PA, PS, SA, SS AUC, LP, DA, MA and FA was measured for each. The tests were run on each of the donors' samples.
Two healthy donors supplied the PRP samples. […] LTAAs were run for each and the PA, PS, SA, SS AUC, LP, DA, MA and FA was measured for each. […]

[3] = tested on: platelet aggregation; conditions: Aspirin doses greater than 100 mg; cited from earlier work
[4] = non-aspirinized plasma, ADP 10 μM
[5] = non-aspirinized plasma, Chrono Log collagen 10 μg/mL

| Molecule | ability to detect the drug in the presence of aspirin [1] | effect on ADP-induced aggregation [1, 4] | effect on biological collagen-induced aggregation ([1]; non-aspirinized plasma) | effect on Bio/Data collagen-induced aggregation ([1]; non-aspirinized plasma) | effect on Chrono Log collagen-induced aggregation [1, 5] | effect on arachidonic acid-induced aggregation ([1]; non-aspirinized plasma) | antiplatelet effect in synthetic collagen-induced aggregation at lower concentrations ([1]; non-aspirinized plasma) | effect on 64 ng/mL synthetic collagen-induced aggregation ([1]; non-aspirinized plasma) | anti-platelet effect in arachidonic acid-induced aggregation ([1]; aspirinized plasma) | detection of the drug by synthetic collagen LTAA [2] | other results |
| --- | --- | --- | --- | --- | --- | --- | --- | --- | --- | --- | --- |
| CC(=O)Oc1ccccc1C(=O)O [aspirin, 2-acetyloxybenzoic acid] | – | – | – | – | – | – | – | – | – | – | effect of aspirin on ADP-induced aggregation ([1]; 10 μM ADP): minimally affected; effect of aspirin on Chrono Log collagen-induced aggregation ([1]; 10 μg/mL Chrono Log collagen): did not inhibit; also recorded: not inhibited; effect of aspirin on Bio/Data collagen-induced aggregation ([1]; 0.19 mg/mL Bio/Data collagen): minimally affected; also recorded: not inhibited; effect of aspirin on synthetic collagen-induced aggregation ([1]; all synthetic collagen concentrations tested (8-64 ng/mL)): lower levels of aggregation; also recorded: higher sensitivity to aspirin; arachidonic acid-induced aggregation in aspirinized plasma ([1]; aspirin taken orally <48 hours before draw or 100 μM in vitro, no other drug): < 20%; response to arachidonic acid in aspirinized plasma ([1]; aspirin taken orally or 100 μM in vitro): nearly completely blunted |
| O=C1CCc2cc(OCCCCc3nnnn3C3CCCCC3)ccc2N1 [cilostazol] | negated the ability to detect cilostazol; also recorded: affected the ability | minimally affected; also recorded: weaker, concentration-dependent inhibition | unaffected | did not inhibit | did not inhibit | strongly inhibited | could be observed; also recorded: readily apparent | did not inhibit; also recorded: minimal effect | – | – | – |
| CCCSc1nc(N[C@@H]2C[C@H]2c2ccc(F)c(F)c2)c2nnn([C@@H]3C[C@H](OCCO)[C@@H](O)[C@H]3O)c2n1 [ticagrelor, (1S,2S,3R,5S)-3-[7-[[(1R,2S)-2-(3,4-difluorophenyl)cyclopropyl]amino]-5-propylsulfanyltriazolo[4,5-d]pyrimidin-3-yl]-5-(2-hydroxyethoxy)cyclopentane-1,2-diol] | affected the ability; also recorded: can be detected | strongly inhibited; also recorded: inhibited | little effect | Neither Bio/Data collagen, Chrono Log collagen nor 64 ng/mL synthetic collagen was markedly impacted | Neither Bio/Data collagen, Chrono Log collagen nor 64 ng/mL synthetic collagen was markedly impacted | inhibited to a similar extent | could be identified; also recorded: readily apparent | Neither Bio/Data collagen, Chrono Log collagen nor 64 ng/mL synthetic collagen was markedly impacted; also recorded: minimal effect | no longer observed | the assays worked with both | anti-platelet effect in 8 ng/mL synthetic collagen-induced aggregation ([1]; aspirinized plasma): no longer observed; anti-platelet effect in 16 and 32 ng/mL synthetic collagen-induced aggregation ([1]; aspirinized plasma): reduced; effect of adding aspirin on the drug's ADP-induced aggregation response ([1]; aspirinized plasma, ADP 10 μM): did not affect; effect of aspirin dose on ticagrelor's inhibition of platelet aggregation [3]: reduce the ability of ticagrelor to inhibit platelet aggregation |
| B1 | readily detectable | inhibited | inhibited | – | – | most sensitive; also recorded: inhibited | most sensitive; also recorded: readily apparent | inhibited by abciximab to a comparable degree | complete inhibition | the assays worked with both | inhibition of Chrono Log collagen-induced aggregation ([1]; aspirinized PRP compared with non-aspirinized, Chrono Log collagen 10 μg/mL): stronger inhibition; concentration at which inhibition of Bio/Data collagen-induced aggregation was observed ([1]; non-aspirinized plasma): 5 µg/mL; concentration at which inhibition of Chrono Log collagen-induced aggregation was observed ([1]; non-aspirinized plasma): 5 μg/mL; inhibition of agonist-induced aggregation ([1]; non-aspirinized plasma, concentration range tested 1.25-5 μg/mL): concentration-dependent inhibition |

From patent publication US20190004070A9 (JNC CORPORATION, priority 2012, published 2019)
